In PubChem BioAssay (NCI):
Several values for one entry are separate records, joined by “and”; a condition that tells them apart may be missing. Equal entries are not always repeated.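 Where inhibition never reached the appropriate level, the endpoint shown equals the highest concentration tested. Otherwise, values were interpolated linearly from a five-concentration, 48-hour dose response in 96-well plates. GI50: concentration for 50% inhibition of growth. At the TGI there is no net growth.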

Key:
Assay in all cases: NCI anticancer screen, dose series, 48 h
[1] = tested on: HCT-15 colon
[2] = tested on: M14 melanoma
[3] = tested on: K-562 leukemia
[4] = tested on: LOX IMVI melanoma
[5] = tested on: SF-295 CNS
[6] = tested on: LXFL 529 NSCLC
[7] = tested on: MALME-3M melanoma
[8] = tested on: COLO 205 colon
[9] = tested on: 786-0 renal
[10] = tested on: SF-268 CNS
[11] = tested on: OVCAR-8 ovarian
[12] = tested on: KM20L2 colon
[13] = tested on: NCI-H460 lung
[14] = tested on: SN12C renal
[15] = tested on: DMS 273 small cell lung
[16] = tested on: UACC-62 melanoma
[17] = tested on: HCT-116 colon
[18] = tested on: NCI-H23 lung
[19] = tested on: SW-620 colon
[20] = tested on: UACC-257 melanoma
[21] = tested on: U251 CNS
[22] = tested on: HT29 colon
[23] = tested on: CAKI-1 renal
[24] = tested on: SNB-75 CNS
[25] = tested on: SNB-78 CNS
[26] = tested on: NCI-H522 lung
[27] = tested on: M19-MEL melanoma
[28] = tested on: HOP-92 NSCLC
[29] = tested on: SK-MEL-5 melanoma
[30] = tested on: MOLT-4 leukemia
[31] = tested on: SK-MEL-28 melanoma
[32] = tested on: CCRF-CEM leukemia
[33] = tested on: RXF 393 renal
[34] = tested on: OVCAR-4 ovarian
[35] = tested on: DMS 114 small cell lung
[36] = tested on: RPMI-8226 leukemia
[37] = tested on: SF-539 CNS
[38] = tested on: XF 498 CNS
[39] = tested on: OVCAR-3 ovarian
[40] = tested on: KM12 colon
[41] = tested on: HL-60(TB) leukemia
[42] = tested on: DLD-1 colon

## NCCSSC/C=C\CSSCCN
[1]
  TGI: > 100 µM
[2]
  TGI: > 100 µM and 42.5 µM
[3]
  GI50: 6.31 µM and 15.7 µM
  TGI: 25.4 µM and 40.5 µM
[4]
  GI50: 26.2 µM and 13 µM
  TGI: > 59.9 µM and 27.9 µM
[5]
  GI50: > 90.3 µM and 27.6 µM
  TGI: > 100 µM and 80.8 µM
[6]
  TGI: > 67.2 µM and 44.6 µM
[7]
  GI50: > 40.4 µM and 17.8 µM
  TGI: > 55.8 µM and 78 µM
[8]
  GI50: 42.7 µM and 18.4 µM
  TGI: > 100 µM and 34 µM
[9]
  GI50: 56.4 µM and 27.1 µM
  TGI: > 100 µM and 82 µM
[10]
  GI50: > 64.9 µM and 29.5 µM
  TGI: > 100 µM
[11]
  TGI: > 69.5 µM and 34.6 µM
[12]
  GI50: 76.3 µM and 21.6 µM
  TGI: > 100 µM and 45 µM
[13]
  GI50: 98.4 µM and 22.2 µM
  TGI: > 100 µM and 51.9 µM
[14]
  GI50: 43.5 µM and 19 µM
  TGI: > 100 µM and 38 µM
[15]
  TGI: > 100 µM and 60.8 µM
[16]
  GI50: 41.2 µM and 20.2 µM
  TGI: > 100 µM and 41.6 µM
[17]
  TGI: > 100 µM
[18]
  TGI: > 100 µM
[19]
  TGI: > 64.8 µM and 28.3 µM
[20]
  GI50: 76.8 µM and 29 µM
  TGI: > 100 µM
[21]
  TGI: > 100 µM and 67.4 µM
[22]
  TGI: > 100 µM and 58.9 µM
[23]
  TGI: > 100 µM
[24]
  TGI: > 100 µM
[25]
  TGI: > 100 µM
[26]
  TGI: 31.4 µM and 29.1 µM
[27]
  TGI: > 100 µM and 95.2 µM
[28]
  TGI: > 100 µM
[29]
  GI50: > 85.7 µM and 26.9 µM
  TGI: > 100 µM and 77.9 µM
[30]
  TGI: 65.2 µM and 53.9 µM
[31]
  GI50: 56 µM and 24.7 µM
  TGI: > 100 µM and 77.8 µM
[32]
  TGI: 68.6 µM
[33]
  TGI: > 100 µM
[34]
  TGI: 77.3 µM and 41.2 µM
[35]
  TGI: > 95.1 µM and 44 µM
[36]
  TGI: 99.5 µM and 58.8 µM
[37]
  TGI: 70.5 µM and 36.5 µM
[38]
  GI50: 79.7 µM and 21.6 µM
  TGI: > 100 µM and 69.5 µM
[39]
  GI50: > 68.6 µM and 25.1 µM
  TGI: > 100 µM and 67.1 µM
[40]
  GI50: 65 µM and 23.4 µM
  TGI: > 100 µM and 62 µM
[41]
  TGI: 29.6 µM and 45.7 µM
[42]
  GI50: 33.8 µM and 15.6 µM
  TGI: > 100 µM and 34.9 µM
